The values that follow come from US12178837B2, “Composition for skin-whitening or preventing or improving skin wrinkles comprising green tea extract which has modified amounts of ingredients” (AMOREPACIFIC CORPORATION, priority 2019, dated 2024).

In this assay the test system is MMP-1 (matrix metalloproteinase-1). The experiment in a line: MMP-1 inhibition activity: ELISA of MMP-1 produced by aged human dermal fibroblasts. Format: cell-based. As to conditions: EGCG + GCG total 3 μg/ml at the given weight ratio. Here is the method:
The evaluation on MMP-1 inhibition activity was conducted in order to verify the effects of the green tea extracts of Samples 1 and 2 of Example 1 in inhibiting the production of MMP-1, which is skin tissue breakdown enzyme, in human skin fibroblast of aged human skin and in inhibiting the production of MMP-1 according to the weight ratio of EGCG and GCG, and the amount of GCG. To be specific, the evaluation was conducted through the following steps.
Normal human dermal fibroblast (NHDF; Lonza, Switzerland) was cultured in a DMEM medium (Dulbecco's modified Eagle's Medium, Gibco 1210-0038) comprising 10% of fetal bovine serum, and the culturing was all performed in a 37° C., 5% CO2 culture medium. Cells that had 6-9 sub-culture frequencies were used as young cells, and aged dermal fibroblasts were obtained by sub-culturing 37 times in such a manner that the number of cells was calculated for every sub-culture and then ⅕ of the total number of cells were newly cultured. The aged dermal fibroblasts were treated with EGCG and GCG depending on the ratio of EGCG:GCG and the concentration of GCG, or treated with Sample 1 or Sample 2.
In order to verify the amount of MMP-1 produced, the enzyme-linked immunosorbent assay (ELISA) method was used (Amersham, USA). The culture medium of the cells treated with the samples at the step 1-1 was collected and the supernatant was isolated by centrifuging at 1000×g, and then the culture medium was put into a 96-well plate coated with an MMP-1 antibody, and then a secondary antibody (horse reddish peroxidase, HRP) was reacted at room temperature for 1 hour, and washed with 100 μL PBS. The amount of MMP-1 produced was confirmed by measuring absorbance at a 490 nm wavelength after reaction and confirming its degree of color formation using a TMB substrate solution (Pierce, USA), and the MMP-1 inhibition activity (%) was calculated using the following equation.
MMP-1 inhibition activity (%)=(O.D. of the group treated with the sample at 490 nm/O.D. of the group not treated with sample at 490 nm)×100
Background: ELISA stands for enzyme-linked immunosorbent assay.

Regarding `O=C(O[C@@H]1Cc2c(O)cc(O)cc2O[C@H]1c1cc(O)c(O)c(O)c1)c1cc(O)c(O)c(O)c1` [GCG, (−)-gallocatechin gallate], the “MMP-1 inhibition activity (%) Processed after 24 hours” value is listed as 10 ± 1.0% and the “MMP-1 inhibition activity (%) Processed immediately” value is 55 ± 9.2%.
For (−)-epigallocatechin gallate [EGCG], the “MMP-1 inhibition activity (%) Processed after 24 hours” value is 6 ± 1.0% and the “MMP-1 inhibition activity (%) Processed immediately” value turned out to be 56 ± 9.7%.
